# Experimental data: article PMC9298254 (Chembiochem, 2021)
# Columns and labels:
# Cys-P1-tagged GPCR = assay: peptide-templated labeling of Cys-P1-tagged GPCRs in live HEK293 cells; assay type: cell-based; conditions: n=3; for fluorescent labeling: Cys-P1-ETAR-GFP, 200 nM probe
# Cys-P3-tagged GPCR = assay: peptide-templated labeling of Cys-P3-tagged GPCRs in live HEK293 cells; assay type: cell-based; conditions: n=3; for fluorescent labeling: 200 nM probe
# ETAR = conditions: competitive antagonist; ref [36]; cited from earlier work
# ETBR-GFP = assay: Ca2+ flux, COS-7, ETBR-GFP co-transfected with other GPCRs; assay type: cell-based; conditions: mock+sitaxentan vs mock+vehicle (no ETAR expression)
# ETBR = conditions: competitive antagonist; ref [36]; cited from earlier work
compound,measurement,setting,value
KIAQLKQ KIQALKQ ENQQLEE ENAALEY [TAMRA‐P4],cross-reactivity labeling,Cys-P1-tagged GPCR; Cys-P1-ETBR-GFP with non-complementary probe,no successful TAMRA labeling was detectable
same,fluorescent labeling,Cys-P3-tagged GPCR; Cys-P3-ETAR-GFP,successfully labeled
same,labeling with complementary probe,Cys-P3-tagged GPCR; Cys-P3-ETAR-GFP,Rapid TAMRA staining within 5 min
TAMRA‐MPAA‐GSGSG,fluorescent labeling,Cys-P1-tagged GPCR,no labeling of GFP‐positive cells was detectable
same,fluorescent labeling,Cys-P3-tagged GPCR; Cys-P3-ETAR-GFP,no labeling of GFP‐positive cells was detectable
Cc1cc2c(cc1CC(=O)c1sccc1S(=O)(=O)Nc1onc(C)c1Cl)OCO2 [sitaxentan],IC50,ETAR,~1 nM
same,effect on ET-1 efficacy and potency at ETBR,ETBR-GFP,No differences in both ligand efficacy and potency
same,IC50,ETBR,~10 µM
"KIAQLKE KNAALKE KNQQLKE KIQALKY [TAMRA‐P2, 6‐carboxytetramethyl‐rhodamine (TAMRA)‐P2]",fluorescent labeling,Cys-P1-tagged GPCR,successfully labeled
same,labeling with complementary probe,Cys-P1-tagged GPCR; Cys-P1-ETBR-GFP,Rapid TAMRA staining within 5 min
same,cross-reactivity labeling,Cys-P3-tagged GPCR; Cys-P3-ETAR-GFP with non-complementary probe,no successful TAMRA labeling was detectable
